Test results from patent US7745646B2, “Bicyclic heteroaryl inhibitors of PDE4” (Kalypsys, Inc., priority 2006, dated 2010).

target: T1, PDE4B (Homo sapiens, UniProt Q07343); assay: Novel coupled PDE/AK bioluminescent assay, PDE4B inhibition; format: biochemical; conditions: PDE4B catalytic domain
T1 construct: hex-histidine (His6) (N); made in house
T1 sequence (Q07343 330-659 limits assumed, species assumed): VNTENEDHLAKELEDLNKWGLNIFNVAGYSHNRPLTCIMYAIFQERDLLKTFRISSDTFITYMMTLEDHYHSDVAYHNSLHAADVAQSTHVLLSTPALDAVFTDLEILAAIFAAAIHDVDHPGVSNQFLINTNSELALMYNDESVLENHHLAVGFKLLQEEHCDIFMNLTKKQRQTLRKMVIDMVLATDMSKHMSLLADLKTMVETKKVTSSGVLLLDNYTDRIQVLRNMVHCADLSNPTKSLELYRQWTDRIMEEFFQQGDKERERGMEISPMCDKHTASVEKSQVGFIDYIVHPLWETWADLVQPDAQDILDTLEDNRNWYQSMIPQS

IC50 | Compound
< 1000 nM | CCCCN(C)CCCCCOc1c(OC)ccc2c(Nc3c(Cl)cncc3Cl)cc(=O)oc12 [Example 90, 8-(5-(Butyl(methyl)amino)pentyloxy)-4-(3,5-dichloropyridin-4-ylamino)-7-methoxy-2H-chromen-2-one]
< 1000 nM | CCCCCN(C)CCCCCOc1c(OC)ccc2c(Nc3c(Cl)cncc3Cl)cc(=O)oc12 [Example 91, 4-(3,5-Dichloropyridin-4-ylamino)-7-methoxy-8-(5-(methyl(pentyl)amino)pentyloxy)-2H-chromen-2-one]
< 1000 nM | COc1ccc2c(Nc3c(Cl)cncc3Cl)cc(=O)oc2c1OCCCCCN(C)CCCN(C)C [Example 92, 4-(3,5-Dichloropyridin-4-ylamino)-8-(5-((3-(dimethylamino)propyl)(methyl)amino)pentyloxy)-7-methoxy-2H-chromen-2-one]
< 1000 nM | COc1ccc2c(Nc3c(Cl)cncc3Cl)cc(=O)oc2c1OCCCCCN(C)CCN(C)C [Example 93, 4-(3,5-Dichloropyridin-4-ylamino)-8-(5-((2-(dimethylamino)ethyl)(methyl)amino)pentyloxy)-7-methoxy-2H-chromen-2-one]
< 1000 nM | CCOC(=O)CNC(=O)CCCCCOc1c(OC)ccc2c(Nc3c(Cl)cncc3Cl)cc(=O)oc12 [Example 94, Ethyl 2-(6-(4-(3,5-dichloropyridin-4-ylamino)-7-methoxy-2-oxo-2H-chromen-8-yloxy)hexanamido)acetate]
< 1000 nM | COC(=O)[C@H](C)NC(=O)CCCCCOc1c(OC)ccc2c(Nc3c(Cl)cncc3Cl)cc(=O)oc12 [Example 95, (S)-Methyl 2-(6-(4-(3,5-dichloropyridin-4-ylamino)-7-methoxy-2-oxo-2H-chromen-8-yloxy)hexanamido)propanoate]

The remaining lines, values behind:

Compound | IC50
COc1ccc2c(Nc3c(Cl)cncc3Cl)c(CCO)c(=O)oc2c1OC1CCCC1 [Example 82, 8-(Cyclopentyloxy)-4-(3,5-dichloropyridin-4-ylamino)-3-(2-hydroxyethyl)-7-methoxy-2H-chromen-2-one] | > 1000 nM
COc1ccc2c(Nc3c(Cl)cncc3Cl)cc(=O)oc2c1OCCCCCNC(=N)N [Example 83, 1-(5-(4-(3,5-Dichloropyridin-4-ylamino)-7-methoxy-2-oxo-2H-chromen-8-yloxy)pentyl)guanidine] | < 1000 nM
COc1ccc2c(Nc3c(Cl)cncc3Cl)cc(=O)oc2c1OCCCCCC(=O)NO [Example 84, 6-(4-(3,5-Dichloropyridin-4-ylamino)-7-methoxy-2-oxo-2H-chromen-8-yloxy)-N-hydroxyhexanamide] | < 1000 nM
COc1ccc2c(Nc3c(Cl)cncc3Cl)cc(=O)oc2c1OCCCO [Example 85, 4-(3,5-Dichloropyridin-4-ylamino)-8-(3-hydroxypropoxy)-7-methoxy-2H-chromen-2-one] | < 1000 nM
COc1ccc2c(Nc3c(Cl)cncc3Cl)cc(=O)oc2c1OCCCCOC(C)=O [Example 86, 4-(4-(3,5-Dichloropyridin-4-ylamino)-7-methoxy-2-oxo-2H-chromen-8-yloxy)butyl acetate] | < 1000 nM
COc1ccc2c(Nc3c(Cl)cncc3Cl)cc(=O)oc2c1OCCCCO[C@@H]1O[C@H](CO)[C@@H](O)[C@H](O)[C@H]1O [Example 87, 4-(3,5-Dichloropyridin-4-ylamino)-7-methoxy-8-(4-((2R,3R,4S,5S,6R)-3,4,5-trihydroxy-6-(hydroxymethyl)tetrahydro-2H-pyran-2-yloxy)butoxy)-2H-chromen-2-one] | < 1000 nM
COc1ccc2c(Nc3c(Cl)cncc3Cl)cc(=O)oc2c1OCC(=O)NO [Example 88, 2-(4-(3,5-Dichloropyridin-4-ylamino)-7-methoxy-2-oxo-2H-chromen-8-yloxy)-N-hydroxyacetamide] | < 1000 nM
CCCN(C)CCCCCOc1c(OC)ccc2c(Nc3c(Cl)cncc3Cl)cc(=O)oc12 [Example 89, 4-(3,5-Dichloropyridin-4-ylamino)-7-methoxy-8-(5-(methyl(propyl)amino)pentyloxy)-2H-chromen-2-one] | < 1000 nM
